Experimental data as given in US20240174985A1, “METHOD FOR PRODUCING OVARIAN SOMATIC CELL-LIKE CELLS, AND METHOD FOR INDUCING DIFFERENTIATION OF PRIMATE PLURIPOTENT STEM CELLS INTO OVARIAN SOMATIC CELL-LIKE CELLS” (Kyoto University, priority 2021, published 2024).
Read-outs that look alike come from different tables or passages of the source.

How the values were obtained:
Assay type in all cases: cell-based
[1] = test system: cynomolgus monkey ES cells; details: for induction of NR5A1-positive cells: addition in step 1 (BMS493 1 μM), FACS day 14; for concentration considered the best in step 2: conclusion at the time of experiment 21
[2] = test system: human iPS cells; test: Induction of differentiation from human iPS cells into ovarian somatic cell-like cells (FACS of OSR1-tdTomato/NR5A1-EGFP reporters, observation of embryoid bodies)
Source text: In order to conveniently observe the expression of genes typical at each developmental stage, a human iPS cell line 1390G3 was genetically modified, and a DNA sequence that emits red fluorescence (tdTomato) with the expression of the OSR1 gene, green fluorescence (EGFP) with the expression of the NR5A1 gene, and red fluorescence (tdTomato) with the expression of the FOXL2 gene was manufactured (see FIG. 1, and after introduction into the chromosome, a portion of “PGKp-Neo (or Puro)-pA” portion was deleted with Cre). An iPS cell line into which two DNA sequences of OSR1 and NR5A1 had been introduced (which may be hereinafter abbreviated as “OTNG”), and an iPS cell line into which two DNA sequences of NR5A1 and FOXL2 had been introduced (which may be hereinafter abbreviated as “NGFT”) were manufactured. In the present test, the OTNG strain was used in most of the experiments. Furthermore, NR5A1 and SF1 are the same gene.
(§1) The cells at each stage were analyzed using a flow cytometer (BD FACSAria III).
The ES cells of monkeys and human iPS cells are considered to be similar to EpiLC in a slightly advanced state in terms of differentiation, as compared with mouse ES cells. Therefore, in the examination using monkey or human pluripotent stem cells in the present test, step 0 was omitted and the process was started from step 1. […] For this reason, Y27632 was added to step 1 to perform examination. In addition, a 96-well V-bottom plate was used as a culture plate and the cells were seeded so as to have 10,000 cells per well.
In a test using human cells, the base medium was changed from GMEM (used in mice) to DMEM including 7.5 v/v % KnockOut (registered trademark) Serum Replacement (KSR). In addition, the base medium includes 0.1 mM 2-mercaptoethanol, 100 U/mL penicillin/streptomycin, and 2 mM GlutaMax (registered trademark), but the additives and concentrations thereof are fixed, and the description following “2.” is omitted. The periods of step 1 and step 2 were set to be the same as those in the mouse protocol, and culture was continued under the condition of step 3. The entire medium was basically changed every two or three days. At the time of subculturing iPS cells, 30,000 cells were seeded on a low-adhesive plate to start the culture as aggregates.

[3] = test system: cynomolgus monkey ES cells
Source text: In order to conveniently observe the expression of genes represented by each developmental stage, the stop codons of TBXT, OSR1, NR5A1, FOXL2, WT1, and GATA4 were deleted from the cynomolgus monkey female ES15XRi cell strain using a Cas9 nickase and gene targeting, 2A and EGFP (TBXT, NR5A1), tdTomato (OSR1, FOXL2, and WT1), and 2A and mTagBFP2 (GATA4) were inserted, and then a drug-resistant cassette sandwiched between loxP's was knocked in (FIGS. 24A to 24F; and in FIG. 24A to FIG. 24F, “PGK” represents a PGK promoter). Thereafter, the drug-resistant cassette was removed using Cre to manufacture the following five double reporter cell strains. • (1) TBXT-EGFP/OSR1-tdTomato (which may be hereinafter abbreviated as a “TGOT strain”); • (2) NR5A1-EGFP/FOXL2-tdTomato (which may be hereinafter abbreviated as a “NGFT strain”); • (3) a single reporter strain of NR5A1-EGFP (which may be hereinafter abbreviated as an “NG-Puro strain”. This strain has not been subjected to the removal of the drug-resistant cassette by Cre); • (4) a triple reporter strain of WT1-tdTomato/GATA4-mTagBFP2/NR5A1-EGFP (which may be hereinafter abbreviated to as a “WTGBNG strain”); and • (5) WT1-tdTomato/NR5A1-EGFP (which may be hereinafter abbreviated as a “WTNG strain”).
as §1
At the time of induction, the ES cells were cultured on mouse embryonic fibroblasts (MEF), which are feeder cells, treated with a proteolytic enzyme solution (CTK: collagenase, trypsin, and KSR), and then dissociated up to a single-cell level using TrypLEselect. Next, each of 30,000 cells was seeded in a low-adhesive 96-well U-bottom culture plate (hereinafter, step 1 was started by the same method unless otherwise specified). A TGOT No. 25 strain was used as a cell strain. The presence or absence of the ROCK inhibitor (Y-27632) in step 1 was examined. In FIG. 25A, the base medium GK7.5 has a composition of GMEM, 7.5 v/v % KSR, 0.1 mM 2-ME, 0.1 mM non-essential amino acid (NEAA), 1 mM sodium pyruvate, 100 U/mL penicillin/streptomycin, and 2 mM L-glutamine. The induction was performed for a period in step 1 of 2 days and in step 2 of 2 days. In step 2, PD173074 was used instead of PD0325901 used in mice. PD173074 is an inhibitor of FGF, whereas PD0325901 is an MEK inhibitor downstream of the FGF signaling pathway.

[4] = test system: cynomolgus monkey ES cells; test: Quantitative PCR of marker genes in cells induced from cynomolgus monkey ES cells; details: without BMP4 and with the addition of LDN in step 1
Method: The relative expression level of each marker gene was confirmed using a PCR apparatus (BIO-RAD CFX384 Real-Time System) with the following primers and conditions. In the table, the primers of PAX3, OSR1, PAX2 #3, EMX2 #1, WT1 #2, and LHX9 #2 were used only in the experiment of FIG. 31C, and the primers of OSR1 #10, CXCL12×4, BMP2, and BMP4 were used only for the experiment in FIG. 57C. The GAPDH gene and the PPIA gene were measured as housekeeping genes, and relative values with the average of Ct values of the two genes as a control value are shown in the graph. Although not shown in the graph, ERCC-00096, ERCC-00009, ERCC-00022, and ERCC-00025 were used in combination as a control, except for the experiment of FIG. 31C.

[5] = test system: human iPS cells; test: Quantitative PCR of marker genes in cells induced from human iPS cells; details: bFGF 5 ng/ml added in step 1; day 15 of induction
Source text: The relative expression level of each marker gene was confirmed using a PCR apparatus (BIO-RAD CFX384 Real-Time System) with the following primers and conditions. In the tables, the PPIA gene and the RPLP0 gene were used as housekeeping genes. The difference in qPCR is a difference from the average value taken as “(PPIA+RPLP0)/2”. In addition, the ERCC gene was used as an absolute control between samples.

[6] = concentration of LDN increased in step 1 (30, 100, 1,000 nM)
[7] = added to each condition in step 3 (16 patterns), day 16
[8] = one cytokine added with EGF in step 3, compared with no cytokine control (CK−), BMP4 1 ng/ml, SHH 30 ng/mL, PD0325901 1 μM, RA 3 μM, day 16
[9] = one cytokine added with EGF in step 3, compared with no cytokine control (CK−), day 16

With CC1(C)CC=C(C#Cc2ccccc2)c2cc(/C=C/c3ccc(C(=O)O)cc3)ccc21 [BMS493] the “OSR1 expression in step 2” value ([1]; 1 μM in step 1, FACS days 2, 4, 6) was “enhancement”, the “expression level of SF1-EGFP” value ([1]; BMS493 1 μM added in step 3) was “slightly increased” and the “induction efficiency of SF1-positive cells” value ([1]; BMS493 1 μM added in step 3) was “poor”. The “expression level of WT1” value ([1]; BMS493 1 μM for 48 hours in step 3, WTGBNG No. 1 strain) was “slightly decreased” and the “induction of NR5A1-positive cells” value [1] was “no particular advantage”.
For Cc1c[nH]c(-c2cnc(NCCNc3ccc(C#N)cn3)nc2-c2ccc(Cl)cc2Cl)n1 [CHIR99021], the NR5A1-positive cells ([1]; CHIR 20 μM in step 1, culture until day 17, NGFT No. 69 strain) was “a number of NR5A1-positive cells were observed”, the “concentration of CHIR99021 at which OSR1 can be expressed with high efficiency” value ([1]; step 1, at a transition to step 2, FACS days 4 and 6) was ≥ 14 µM and the “proportion of NR5A1-positive cells” value ([2]; CHIR99021 15 μM as compared to 10 μM in step 1) was “excellent”. For the same molecule, the “expression of OSR1” value ([3]; CHIR 10 μM in step 1, regardless of the concentration of BMP4) was “confirmed”, the “optimum concentration of CHIR for induction of the intermediate mesoderm” value ([3]; step 1) was ≥ 10 µM and the “concentration of CHIR99021 at which TBXT can be expressed with high efficiency” value ([3]; step 1 of 2 days, FACS day 2, TGOT No. 25 strain) was ≥ 8 µM.
For c1ccc2c(-c3cnn4cc(-c5ccc(N6CCNCC6)cc5)cnc34)ccnc2c1 [LDN193189], the “induction of NR5A1-positive cells” value [1] was “no particular advantage”, the “improvement in the proportion of NR5A1-positive cells” value ([1]; addition of LDN in step 1 (30, 100, 1,000 nM), days 14, 17, 21) was “almost no improvement” and the “OSR1 expression at the end point of step 1 (day 2.2)” value [1, 6] was “decreased”. For the same molecule, the “increase in OSR1 expression in step 2 (days 4 and 6)” value [1, 6] was “became weaker” and the “expression of FOXF1” value [4] was “almost disappeared”.
With O=C(NOC[C@H](O)CO)c1ccc(F)c(F)c1Nc1ccc(I)cc1F [PD0325901] the “optimum concentration of PD0325901 in step 2” value ([1]; FACS day 16, NGFT No. 69 strain) was 1 µM, the induction efficiency ([1]; MEK downstream of FGF inhibited with PD0325901 1 μM in step 3, FACS day 16) was “higher” and the “number of the induced cells” value ([1]; PD03 added in step 3, WTGBNG No. 1) was “reduced”. For the same molecule, the induction efficiency [1, 7] was “improved”, the “number of induced cells” value [1, 7] was “decreased” and the induction efficiency ([1]; addition of PD0325901 in step 3, without addition of SHH, WTGBNG No. 1) was “the highest”. The “concentration considered the best in step 2” value [1] was 1 µM, the “optimum addition period of PD03 in step 3” value ([1]; none, 48 hours, 96 hours tested, NG-Puro strain) was 48 h and the induction efficiency [1, 8] was “further increased”. For the same molecule, the “number of induced cells” value [1, 9] was “decreased”, the “size (embryoid bodies) at the end of step 2” value ([1]; step 2: PD0325901 3, 1, 0.3, 0 μM or FGF9 20 ng/ml, day 6) was “improved as the amount of PD0325901 was reduced” and the NR5A1-positive cells ([2]; PD0325901 not added in step 2, day 15 of induction) was “not observed at all”. The NR5A1-positive cells ([2]; PD0325901 weak in step 2 (0.4-1.0 μM tested), day 15) was “did not appear” and the “PD0325901 concentration with the highest differentiation induction efficiency” value ([2]; step 2, KSR 7 v/v %, day 15) was 1.0 µM.
In the case of CC1=C(/C=C/C(C)=C/C=C/C(C)=C/C(=O)O)C(C)(C)CCC1 [RA, retinoic acid], the “concentration of RA in step 2 at which induction efficiency for NR5A1-positive cells was particularly excellent” value ([1]; 0, 0.3, 1, 3, 10 μM tested, FACS day 16) is reported as ≥ 3 µM and the “concentration considered the best in step 2” value [1] is reported as 3 µM.
In the case of CNC1CCC(N(Cc2cccc(-c3ccncc3)c2)C(=O)c2sc3ccccc3c2Cl)CC1 (stereo not shown) [SAG], the “replacement of SHH in step 2” value ([1]; SAG 100 nM, FACS day 16) is reported as “SHH can be replaced with SAG”.
In the case of C[C@@H](N)[C@H]1CC[C@H](C(=O)Nc2ccncc2)CC1 [Y-27632], the “efficiency of forming cell aggregates (embryoid bodies)” value ([3]; without Y-27632 in step 1, day 2 of induction, TGOT No. 25 strain) is reported as “significantly low”.
For BMP4: bone morphogenetic protein 4, the “embryoid bodies (size; concern about cytotoxicity)” value [1] was “the same tendency was recognized”, the “best concentration in step 2 (induction efficiency)” value ([1]; BMP4 0, 1, 5, 10 and SHH 0, 30, 60, 100 ng/ml tested, FACS day 16) was 1 ng/mL and the “concentration in step 3 that most induced NR5A1-positive cells” value ([1]; BMP4 0, 1, 20, 50 and FGF9 0, 2, 10, 20 ng/ml tested, FACS day 16) was 1 ng/mL. The induction efficiency ([1]; BMP4 not added after step 2 (four-step method), FACS day 16) was “higher”, the “number of induced cells” value [1, 7] was “decreased only in a case where BMP4 was added to EGF+RA (ER+B)” and the “expression of OSR1” value ([1]; by the amount of BMP4 added in step 1 (1, 3, 10 ng/ml), CHIR 10 μM) was “increase”. The “concentration considered the best in step 2” value [1] was 1 ng/mL, the induction efficiency [1, 8] was “reduced” and the “number of induced cells” value [1, 9] was “large”. The “concentration in step 1 at which number and proportion of the positive cells were maximal” value ([1]; periods 3-3-10 (days), day 16) was 0 ng/mL and the “expression of OSR1” value ([3]; increasing the amount of BMP in step 1, CHIR99021 14 μM or more) was “enhanced”.
EGF: epidermal growth factor was tested, and the “concentration considered the best in step 2” value [1] was 50 ng/mL and the necessity for induction ([1]; no addition of EGF in step 1 and step 2, FACS day 16, NGFT No. 69) was “not essential”.
With “bFGF: basic fibroblast growth factor (FGF2)” the “expression of OSR1” value ([1]; added in step 1: bFGF 50 ng/mL entire period, Activin A 10 ng/ml one day from day 1, FACS days 2, 4, 6) was “acted toward enhancing the expression of OSR1”, the NR5A1-positive cells ([1]; addition of bFGF in step 1, periods 2-2-12 (days), day 16) was “no significant change” and the “NR5A1-positive cell induction efficiency” value ([1]; addition of bFGF in step 1, periods 3-3-10 (days), day 16) was “remarkable improvement”. For the same molecule, the “improvement of the induction of NR5A1-positive cells” value ([1]; bFGF 50 ng/ml and Activin A 10 ng/ml (only from day 1) in step 1, days 14 and 21) was “not recognized”, the “concentration in step 1 at which number and proportion of the positive cells were maximal” value ([1]; periods 3-3-10 (days), day 16) was 5 ng/mL and the “expression of the marker gene of posteriorization” value [5] was “not recognized”. For the same molecule, the “states of the embryoid bodies” value ([2]; added between day 2 and day 4 of induction, step 1 plane culture) was “poor (dead)” and the differentiation induction efficiency ([2]; bFGF not present in step 1 (versus added)) was “higher”.
